Laboratory results: PubChem BioAssay (NCI)
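All cell lines were grown in 96-well plates and treated with compound for 48 hours. Abbreviation: GI50, concentration required for 50% inhibition of growth. TGI: concentration producing complete growth inhibition.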

What was measured:
Assay in all cases: inhibition of tumour cell growth, NCI panel, 48 h
NCI-H522 lung = test system: NCI-H522 lung
HCT-15 colon = test system: HCT-15 colon
PC-3 prostate = test system: PC-3 prostate
MALME-3M melanoma = test system: MALME-3M melanoma
OVCAR-3 ovarian = test system: OVCAR-3 ovarian
SW-620 colon = test system: SW-620 colon
OVCAR-8 ovarian = test system: OVCAR-8 ovarian
SK-MEL-2 melanoma = test system: SK-MEL-2 melanoma
KM12 colon = test system: KM12 colon
HT29 colon = test system: HT29 colon

SMILES	TGI (NCI-H522 lung)	TGI (HCT-15 colon)	TGI (PC-3 prostate)	TGI (MALME-3M melanoma)	TGI (OVCAR-3 ovarian)	TGI (SW-620 colon)	TGI (OVCAR-8 ovarian)	TGI (SK-MEL-2 melanoma)	TGI (KM12 colon)	TGI (HT29 colon)	GI50 (NCI-H522 lung)	GI50 (HCT-15 colon)	GI50 (PC-3 prostate)	GI50 (MALME-3M melanoma)	GI50 (OVCAR-3 ovarian)	GI50 (SW-620 colon)	GI50 (SK-MEL-2 melanoma)	GI50 (KM12 colon)	GI50 (HT29 colon)	GI50 (OVCAR-8 ovarian)
CCN(CC)CCCC(C)Nc1ccnc2cc3ccccc3cc12 (stereo unspecified)	29 µM	14.4 µM	> 100 µM	45.1 µM	> 100 µM	> 100 µM	54.2 µM	52.4 µM	33.8 µM											
O=C(C[C@H](NC(=O)OCc1ccccc1)C(=O)NC1Cc2ccccc2OC1=O)OCc1ccccc1 (stereo partly specified)	> 100 µM	> 100 µM	70.2 µM	> 100 µM	> 100 µM		> 100 µM	> 100 µM	> 100 µM											
Cc1ccc(NP(=O)(Oc2ccccc2)N(CCCl)CCCl)cc1 (stereo unspecified)	> 100 µM	> 100 µM		> 100 µM	> 100 µM	> 100 µM	> 100 µM	> 100 µM	> 100 µM	> 100 µM										
OC1(c2ccc(Cl)cc2)c2c(ccc3c2OCO3)C2=NCCN21 (stereo unspecified)		> 100 µM	> 100 µM	21.2 µM	> 100 µM	> 100 µM	> 100 µM	43.4 µM	43.9 µM	91.5 µM										
O=C(O)c1cc(=O)[nH]c(SCc2ccccc2)n1	> 100 µM	> 100 µM	> 100 µM	> 100 µM	> 100 µM	> 100 µM	> 100 µM	> 100 µM	> 100 µM	> 100 µM										
CC(C)CCC[C@@H](C)[C@H]1CC[C@H]2[C@@H]3CC[C@H]4C[C@H](N)CC[C@]4(C)[C@H]3CC[C@]12C	99.7 µM	96.2 µM	20.2 µM	38.7 µM	> 100 µM	> 100 µM	86.4 µM		> 100 µM	54.3 µM										
COc1ccc(C2CC(c3cccc(Nc4ccncc4)c3)=NN2c2ccc(Cl)cc2)cc1 (stereo unspecified)	3.71 µM	3.58 µM	2.96 µM	3.15 µM	3.15 µM	3.19 µM		4.28 µM	3.37 µM		1.79 µM	1.88 µM	1.44 µM	1.59 µM	1.67 µM	1.61 µM	2.07 µM	1.72 µM		
Cc1cccc2cc3c(ccc4ccccc43)c[n+]12	38.2 µM	> 100 µM	> 100 µM	5.22 µM	16.9 µM	> 100 µM	> 100 µM	48.3 µM	32 µM	> 100 µM										
N#Cc1c(NC(=S)Nc2ccc(Cl)cc2)sc2c1CCCC2	> 100 µM	> 100 µM	> 100 µM	> 100 µM	> 100 µM	> 100 µM	> 100 µM	> 100 µM	> 100 µM	> 100 µM										
CC(=O)Oc1c(C)c2c(O)c3c1C1=C(OCOC1=C(C)C3=O)/C(C)=C\C(C)(O)C(O)C(C)C(O)C1C(=O)OC(C(C)C1O)C(C)(O)/C=C/C=C(C)C(=O)N2 (stereo unspecified)	> 100 µM	> 100 µM	> 100 µM	> 100 µM	> 100 µM	> 100 µM	> 100 µM	> 100 µM	> 100 µM	> 100 µM										
CSc1nc(NC2OCC(OC(C)=O)C(OC(C)=O)C2OC(C)=O)c(N=C(C)C(C)=O)c(=O)[nH]1 (stereo unspecified)		> 100 µM		> 100 µM		> 100 µM	> 100 µM	> 100 µM	> 100 µM	> 100 µM										
O=S1(=O)C(c2ccccc2)C(N2CCCCC2)C1C1CC2c3ccccc3C1c1ccccc12 (stereo unspecified)	> 100 µM	> 100 µM	> 100 µM	> 100 µM	> 100 µM	> 100 µM	> 100 µM	> 100 µM	> 100 µM	> 100 µM										
COc1ccc2c(c1)CCN=C2Cc1cc(OC)c(OC)cc1CCCl	60.1 µM		> 100 µM	73.8 µM	> 100 µM	> 100 µM	> 100 µM	> 100 µM	> 100 µM	> 100 µM										
O=C(C=P(c1ccccc1)(c1ccccc1)c1ccccc1)c1cccc(-c2cccc([N+](=O)[O-])c2)c1	4.4 µM	21.1 µM	20.9 µM	9.28 µM	> 100 µM	26.8 µM	> 100 µM		> 100 µM	4.17 µM										
CN(c1cc2ncc(=O)[nH]c2cc1NC(N)=NCc1ccc(Cl)cc1)C1CCCCC1	16.1 µM	15.4 µM	12.5 µM	17.5 µM	13.6 µM	11.2 µM	23.3 µM	18.3 µM	10.9 µM	14.1 µM	7.39 µM	8.27 µM	5.94 µM	8.5 µM	6.78 µM	4.33 µM	8.83 µM	4.52 µM	5.03 µM	10.4 µM
CCN1C=C/C(=C\C=C/c2cc[n+](CC)c3ccccc23)c2ccccc21	23.1 µM	34.1 µM	17.3 µM	30.5 µM	6.81 µM	16.2 µM	17.1 µM	21.2 µM	12.4 µM	13.8 µM										
CCOC(=O)C[C@@H]1C2(C=C[C@@]13CO3)OCC(C)(C)CO2		> 100 µM	> 100 µM	> 100 µM	> 100 µM	> 100 µM	> 100 µM	> 100 µM		> 100 µM										
C=CCc1cc(-c2cc(CC=C)c(O)c(CNC)c2)cc(CNC)c1O	28.3 µM	30.2 µM		33.6 µM	27.9 µM	31.7 µM	32.5 µM	32.9 µM	30.2 µM	29.1 µM										
CCCCCCCCCCCCCCCc1ccc(OCC(O)CO)cc1 (stereo unspecified)	35.4 µM	> 100 µM		46.8 µM	49.3 µM	49.1 µM	72.7 µM	42.7 µM	31.7 µM	46.1 µM										
c1ccc(C2CC(c3cccc(Nc4ccncc4)c3)=NN2c2ccccc2)cc1 (stereo unspecified)	3.28 µM	3.18 µM	3.58 µM	3.02 µM	3.54 µM	3.27 µM		3.46 µM	3.44 µM	3.49 µM	1.62 µM	1.59 µM	1.69 µM	1.57 µM	1.8 µM	1.65 µM	1.87 µM	1.74 µM	1.69 µM	
CC(C)(C)OC(=O)NCC(=O)NC1c2ccsc2/C(=N/O)[C@H]1O (stereo partly specified)		> 100 µM	> 100 µM	> 100 µM	> 100 µM	> 100 µM	> 100 µM	> 100 µM		> 100 µM										
CO/C=C(/C(=O)OC)c1ccccc1[C@@H]1CC1c1cccc(F)c1 (stereo partly specified)	35.3 µM	78.1 µM	> 100 µM	45.9 µM	> 100 µM		> 100 µM	37.4 µM	83.9 µM	> 100 µM										
Cc1nc2c(n1C)C(=O)c1nc(CBr)[nH]c(=O)c1C2=O	> 100 µM	> 100 µM				> 100 µM	> 100 µM			> 100 µM										
